From patent publication US20230043428A1, “COMPOSITIONS AND METHODS FOR USE OF CANNABINOIDS FOR NEUROPROTECTION” (INMED PHARMACEUTICALS INC., priority 2019, published 2023)
“And” between values parts separate entries of the source, which are not always exact repeats. Equal entries are not always repeated. “Also recorded” adds a separate entry of the source.

Legend:
[1] = tested on: rat episcleral vein laser photocoagulation model of glaucoma (RGC function); experiment: pattern electroretinogram (pERG) in the rat episcleral vein laser photocoagulation model of glaucoma; assay type: in vivo; settings: for pERG amplitudes vs baseline (statistical significance): two-way ANOVA, Tukey
Experimental: The pattern electroretinogram (pERG) amplitude a parameter that measures retinal ganglion cell (RGC) activity was evaluated on the eyes of anesthetized animals. During the pERG recording, the eyes were kept moist with a drop of 2.5% GonioVisc ophthalmic lubricant solution (Hub Pharmaceuticals), which also secured electrical contact between the corneas and ERG electrodes. The ERG electrodes were thin silver/silver-chloride wire rings. One eye was recorded while another eye was mechanically occluded. The occluded eye served as a reference in the ERG recording providing minimal physiological noise, while the ground electrode was placed on the tail. Only the signals from the right eye (OD) were recorded. The pERG stimulus was generated with a gamma-linearized monitor screen yielding vertical sinusoidal pattern of 0.10 cycles per degree of visual angle at viewing distance. The mean luminance of stimulation was 45 lux and contrast between dark and white was 99%. […] Two recordings were performed for each eye. For the pERG analysis, the pERG waveforms were superimposed, checked for consistency and averaged as final pERG response. Baseline pERG responses were recorded at day 0 four days prior to the lasering, and on days 7, 14 and day 21 post-lasering. Initially pERG baseline amplitudes were recorded on the eyes of all animals at baseline. The animals were then randomized into control and treatments groups based on their pERG response.
The following treatment arms were used in the study: • Group 1: Vehicle (0.5% DMSO-PBS) (IVT, day 0, day 7 and day 15) n=11 • Group 2: CBN low dose, 5 μM in 0.05% DMSO-PBS (IVT, day 0, day 7 and day 15) n=13 • Group 3: CBN high dose 50 μM in 0.5% DMSO-PBS (IVT, day 0, day 7 and day 15) n=11 • Group 4: Brimonidine (topical, twice daily at 5 μl per eye, day −3 to day 21) n=14

[2] = tested on: differentiated 661W cells; experiment: MTT assay, cannabinoid cytotoxicity on differentiated 661W cells under atmospheric pressure; assay type: cell-based, mouse; settings: 72 hours
Experimental: (§1) Cell Culture and Differentiation: The mouse 661W (RGC-5) cell line was maintained in DMEM cell culture medium supplemented with 10% FBS and 1% Antibiotic-Antimycotic penicillin/streptomycin (growth medium) at 37° C. in a humidified atmosphere of 5% CO2. To induce neuronal differentiation in 661W cells, culture media was replaced by a growth medium containing 321 nM Staurosporine (STSR), and cells were incubated for 24 hrs at 37° C. in a humidified atmosphere of 5% CO2.
(§2) Compounds and Dosing Formulations: Selected cannabinoids: CBN, CBD, CBGA, CBDA, CBND and Δ^9-THC were procured from Cayman and Toronto Research Chemicals. Ethanol was used as the solvent to prepare 1 and 10 mM stock solutions. Treatment concentrations for CBN were prepared at 0.015, 0.05, 0.15, 0.5, 1.5, 5, 10 and 15 μM. Treatment concentrations at 0.5, 1.5 and 5 μM for other cannabinoids were prepared directly in the control medium (DMEM+5% FBS+1% Antibiotic-Antimycotic) by using appropriate stock solution.
(§3) Evaluation of Cytotoxicity and Neuroprotection: Evaluation of cannabinoid cytotoxicity on differentiated 661W cells under atmospheric pressure was carried out using MTT (3-(4,5-dimethylthiazol-2-yl)-2,5-diphenyltetrazolium bromide) assay. The cells were seeded onto 96-well plates (4,000 cells/well) in DMEM complete medium and allowed to reach ˜70% confluence for 24 hrs. After 24 hours, cell culture medium was replaced by growth medium containing 321 nM Staurosporine (STSR) and incubated for 1 day to induce differentiation into a neuronal phenotype.
(§4) MTT Assay: For the MTT assay, differentiated 661W cells were treated with cannabinoids at various concentrations and processed to determine cytotoxicity. Briefly, 5 mg/mL of methylthiazolyldiphenyl-tetrazolium bromide (Sigma-Aldrich) stock solution was prepared in PBS. Following treatment of cannabinoids for 72 hours, 661W cells were incubated with 20 μL of MTT stock solution in 200 μL DMEM for 2 hours at 37° C. Following subsequent washes with PBS, 200 μL of isopropanol was added to each well, and the resulting change in color from dissolving formazan salt was immediately quantified using spectrophotometer (BMG Labtech) at a wavelength of 570 nm. The data was normalized to Vehicle Control (VC) containing 0.15% ethanol and presented as % Cell Death. The VC (%) at atmospheric pressure was considered as 0% cell death. The results are illustrated in FIG. 1.

[3] = tested on: differentiated 661W cells; experiment: MTT assay, differentiated 661W cells in pressurized chamber at elevated hydrostatic pressure (approximately 20 to 40 mm Hg); assay type: cell-based, mouse; settings: for neuroprotection (Cell Death % vs Normal Pressure Vehicle Control): elevated hydrostatic pressure approximately 20 to 40 mm Hg, 72 hours
Experimental: as §1, §2, §3, §4
Except where indicated all procedures were performed as described in Example 1. Differentiated 661W cells treated with cannabinoids at the respective concentrations were placed in a pressurized chamber where an elevated hydrostatic pressure of […] was maintained for 72 hrs. At the end of incubation, 661W cells were processed for MTT assay to determine cytotoxicity. The results are illustrated in FIGS. 2-5.

[4] = tested on: differentiated 661W cells; experiment: MTT assay, CBNA on differentiated 661W cells at elevated hydrostatic pressure (~10-25 mmHg); assay type: cell-based, mouse; settings: elevated hydrostatic pressure approximately 10 to 25 mmHg; 0.015 to 15 μM; 72 hours
Experimental: as §4
In a separate study cannabinol-derivative CBNA at 0.015, 0.05, 0.15, 0.5, 1.5, 5, 10, and 15 μM concentrations was placed on differentiated 661W cells in a pressurized chamber where an elevated hydrostatic pressure of ˜10-25 mmHg was maintained for 72 hrs. At the end of incubation, 661W cells were processed for MTT assay to determine cytotoxicity. The results are illustrated in FIG. 6.

[5] = Brimonidine topical, twice daily at 5 μl per eye
[6] = Brimonidine topical, twice daily
[7] = CBN high dose, 50 μM, IVT day 0, 7 and 15
[8] = CBN low dose, 5 μM, IVT day 0, 7 and 15

SMILES: Brc1c(NC2=NCCN2)ccc2nccnc12 [Alphagan, Brimonidine]
- pERG amplitudes vs baseline (statistical significance) ([1]; Brimonidine (ALPHAGAN) topical twice daily, follow-up days 14 and 21): did not differ significantly from the baseline
- pERG amplitude (mean ± SEM), BASELINE ([1]; Brimonidine topical, twice daily at 5 μl per eye, day −3 to day 21, baseline): 3.6 ± 0.4 μV
- pERG amplitude (mean ± SEM), DAY 7 [1, 5]: 3.9 ± 0.6 μV
- pERG amplitude (mean ± SEM), DAY 14 [1, 5]: 2.8 ± 0.4 μV
- pERG amplitude (mean ± SEM), DAY 21 [1, 5]: 2.4 ± 0.3 μV
- pERG amplitude reduction compared to baseline value, Day 7 [1, 6]: 9.6%
- pERG amplitude reduction compared to baseline value, Day 14 [1, 6]: −22.8%
- pERG amplitude reduction compared to baseline value, Day 21 [1, 6]: −31.6%

SMILES: CCCCCc1cc(O)c2c(c1)OC(C)(CCC=C(C)C)C=C2 (stereo not drawn) [CBC, cannabichromene]
- toxicity when in contact with neurons ([2]; concentration of about 1.5 μM): high toxicity
- toxicity when in contact with neurons ([2]; concentration of about 5 μM): high toxicity

SMILES: C=C(C)[C@@H]1CCC(C)=C[C@H]1c1c(O)cc(CCCCC)c(C(=O)O)c1O [CBDA, cannabidiolic acid]
- neuroprotection (Cell Death % vs Normal Pressure Vehicle Control) ([3]; 0.5 μM, 1.5 μM and 5 μM): absence of significant neuroprotection
- toxicity when in contact with neurons ([2]; concentration of about 5 μM): high toxicity

SMILES: C=C(C)[C@@H]1CCC(C)=C[C@H]1c1c(O)cc(CCCCC)cc1O [CBD]
- neuroprotection (Cell Death % vs Normal Pressure Vehicle Control) ([3]; 0.5 μM, 1.5 μM and 5 μM): absence of significant neuroprotection
- toxicity when in contact with neurons ([2]; concentration of about 0.5 μM): high toxicity
- toxicity when in contact with neurons ([2]; concentration of about 1.5 μM): high toxicity
- toxicity when in contact with neurons ([2]; concentration of about 5 μM): high toxicity

SMILES: CCCCCc1cc(O)c(C/C=C(\C)CCC=C(C)C)c(O)c1 [CBG, cannabigerol]
- toxicity when in contact with neurons ([2]; concentration of about 0.5 μM): high toxicity
- toxicity when in contact with neurons ([2]; concentration of about 1.5 μM): high toxicity
- toxicity when in contact with neurons ([2]; concentration of about 5 μM): high toxicity

SMILES: CCCCCc1cc(O)c(C/C=C(\C)CCC=C(C)C)c(O)c1C(=O)O [CBGA]
- neuroprotection (Cell Death % vs Normal Pressure Vehicle Control) ([3]; 0.5 μM, 1.5 μM and 5 μM): absence of significant neuroprotection
- toxicity when in contact with neurons ([2]; concentration of about 0.5 μM): high toxicity
- toxicity when in contact with neurons ([2]; concentration of about 1.5 μM): high toxicity
- toxicity when in contact with neurons ([2]; concentration of about 5 μM): high toxicity

SMILES: CCCCCc1cc(O)c2c(c1)OC(C)(C)c1ccc(C)cc1-2 [CBN, 6,6,9-trimethyl-3-pentylbenzo[c]chromen-1-ol]
- neuroprotection (Cell Death % vs Normal Pressure Vehicle Control) ([3]; CBN 0.015 to 15 μM, One-Way ANOVA vs VC): statistically significant neuroprotection; also recorded: significant neuroprotective effect
- neuroprotective effect compared with CBD and Δ^9-THC ([3]; elevated pressure conditions in the pressurized chamber, same conditions): surprisingly superior
- pERG amplitudes vs baseline (statistical significance) ([1]; CBN high dose, 50 μM IVT, days 14 and 21): statistically significant difference in disease induction; also recorded: Statistically significant impairment of RGC function
- pERG amplitude (mean ± SEM), BASELINE ([1]; CBN high dose, 50 μM, IVT day 0, 7 and 15, baseline (before lasering)): 3.83 μV and 3.8 ± 0.4 μV
- pERG amplitude (mean ± SEM), DAY 7 [1, 7]: 3.6 ± 0.6 μV
- pERG amplitude (mean ± SEM), DAY 14 [1, 7]: 1.87 μV and 1.9 ± 0.3 μV
- pERG amplitude (mean ± SEM), DAY 21 [1, 7]: 2.19 μV and 2.2 ± 0.4 μV
- pERG amplitude reduction compared to baseline value, Day 7 ([1]; CBN high dose, 50 μM, IVT): −6.4%
- pERG amplitude reduction compared to baseline value, Day 14 ([1]; CBN high dose, 50 μM, IVT, **p<0.01 vs baseline): −51.2** %
- pERG amplitude reduction compared to baseline value, Day 21 ([1]; CBN high dose, 50 μM, IVT, *p<0.05 vs baseline): −42.9* %
- neuroprotective effect on RGCs ([1]; CBN low dose of 5 μM final concentration inside the eye): confers neuroprotective effect on RGCs similar to ALPHAGAN
- pERG amplitudes vs baseline (statistical significance) ([1]; CBN low dose, 5 μM final concentration inside the eye, follow-up days 14 and 21): did not differ significantly from the baseline
- pERG amplitude (mean ± SEM), BASELINE ([1]; CBN low dose, 5 μM, IVT day 0, 7 and 15, baseline (before lasering)): 3.3 ± 0.3 μV
- pERG amplitude (mean ± SEM), DAY 7 [1, 8]: 3.2 ± 0.5 μV
- pERG amplitude (mean ± SEM), DAY 14 [1, 8]: 2.3 ± 0.2 μV
- pERG amplitude (mean ± SEM), DAY 21 [1, 8]: 2.2 ± 0.3 μV
- pERG amplitude reduction compared to baseline value, Day 7 ([1]; CBN low dose, 5 μM, IVT): −3.7%
- pERG amplitude reduction compared to baseline value, Day 14 ([1]; CBN low dose, 5 μM, IVT): −31.2%
- pERG amplitude reduction compared to baseline value, Day 21 ([1]; CBN low dose, 5 μM, IVT): −31.6%

SMILES: CCCCCc1cc2c(c(O)c1C(=O)O)-c1cc(C)ccc1C(C)(C)O2 [CBNA, cannabinolic acid]
- neuroprotection (Cell Death % vs Vehicle Control) [4]: statistically significant neuroprotection

SMILES: C=C(C)c1ccc(C)cc1-c1c(O)cc(CCCCC)cc1O [CBND]
- neuroprotection (Cell Death % vs Normal Pressure Vehicle Control) ([3]; 0.5 μM, 1.5 μM and 5 μM): absence of significant neuroprotection
- toxicity when in contact with neurons ([2]; concentration of about 1.5 μM): high toxicity
- toxicity when in contact with neurons ([2]; concentration of about 5 μM): high toxicity

SMILES: CCCCCc1cc(O)c2c(c1)OC(C)(C)[C@@H]1CCC(C)=C[C@@H]21 [Δ^9-THC, Δ^9-tetrahydrocannabinol]
- neuroprotection (Cell Death % vs Normal Pressure Vehicle Control) ([3]; 0.5 μM, 1.5 μM and 5 μM): absence of significant neuroprotection
- toxicity when in contact with neurons ([2]; concentration of about 5 μM): high toxicity
